From paper PMC5218480 (PLoS ONE, 2017)

System: MV-4-11 cells
Assay: Gene expression microarray analysis (Affymetrix PrimeView) and GSEA
Type: cell-based, human
Set-up: RFU PODN (11730768_x_at) / Fold change /veh PODN (11730768_x_at) / RFU LINC00158 (11744669_a_at) / Fold change /veh LINC00158 (11744669_a_at) / RFU DUSP10 (11751237_a_at) / Fold change /veh DUSP10 (11751237_a_at) / RFU ID3 (11757404_x_at) / Fold change /veh ID3 (11757404_x_at) / RFU PLEKHG5 (11737974_s_at) / Fold change /veh PLEKHG5 (11737974_s_at) / RFU LRRC4B (11730491_at) / Fold change /veh LRRC4B (11730491_at) / RFU GIMAP4 (11747438_a_at) / Fold change /veh GIMAP4 (11747438_a_at) / RFU KRT8 (11758183_x_at) / Fold change /veh KRT8 (11758183_x_at) / RFU CNN1 (11734310_a_at) / Fold change /veh CNN1 (11734310_a_at) / RFU VPS37D (11726825_at) / Fold change /veh VPS37D (11726825_at) / RFU C10orf10 (11716522_x_at) / Fold change /veh C10orf10 (11716522_x_at) / RFU KIR2DL2 /// KIR2DL4 /// KIR2DL5A /// KIR2DL5B /// KIR2DS1 /// KIR2DS2 /// KIR2DS3 /// KIR2DS4 /// KIR3DL3 /// KIR3DL3 /// KIR3DS1 (11738374_at) / Fold change /veh KIR2DL2 /// KIR2DL4 /// KIR2DL5A /// KIR2DL5B /// KIR2DS1 /// KIR2DS2 /// KIR2DS3 /// KIR2DS4 /// KIR3DL3 /// KIR3DL3 /// KIR3DS1 (11738374_at) / RFU C1QL1 (11718748_at) / Fold change /veh C1QL1 (11718748_at) / RFU TMPRSS4 (11747572_a_at) / Fold change /veh TMPRSS4 (11747572_a_at) / RFU HAMP (11756126_x_at) / Fold change /veh HAMP (11756126_x_at) / RFU RNFT2 (11725882_a_at) / Fold change /veh RNFT2 (11725882_a_at) / RFU NR4A2 (11747474_a_at) / Fold change /veh NR4A2 (11747474_a_at) / RFU ABCC12 (11746883_a_at) / Fold change /veh ABCC12 (11746883_a_at) / RFU TMEM136 (11760407_x_at) / Fold change /veh TMEM136 (11760407_x_at) / RFU CLDN22 /// WWC2 (11732394_at) / Fold change /veh CLDN22 /// WWC2 (11732394_at) / RFU HLA-DPB1 (11760878_x_at) / Fold change /veh HLA-DPB1 (11760878_x_at) / RFU SPINT1 (11716480_a_at) / Fold change /veh SPINT1 (11716480_a_at) / RFU GAP43 (11754022_s_at) / Fold change /veh GAP43 (11754022_s_at) / RFU A4GNT (11735810_at) / Fold change /veh A4GNT (11735810_at) / RFU PRB3 (11715151_x_at) / Fold change /veh PRB3 (11715151_x_at) / RFU TUBB4B (11761932_at) / Fold change /veh TUBB4B (11761932_at) / RFU CAPN14 (11732068_a_at) / Fold change /veh CAPN14 (11732068_a_at) / RFU TMCC2 (11721928_a_at) / Fold change /veh TMCC2 (11721928_a_at) / RFU IRGQ (11745062_a_at) / Fold change /veh IRGQ (11745062_a_at) / RFU FAM174B (11720279_a_at) / Fold change /veh FAM174B (11720279_a_at) / RFU TMPRSS4 (11748680_a_at) / Fold change /veh TMPRSS4 (11748680_a_at) / RFU FAM212B (11763350_a_at) / Fold change /veh FAM212B (11763350_a_at) / RFU PLEKHG5 (11743358_a_at) / Fold change /veh PLEKHG5 (11743358_a_at) / RFU ZSCAN30 (11745921_a_at) / Fold change /veh ZSCAN30 (11745921_a_at) / RFU CMKLR1 (11741424_a_at) / Fold change /veh CMKLR1 (11741424_a_at) / RFU LOC101060620 /// MAPK8IP1 (11723275_at) / Fold change /veh LOC101060620 /// MAPK8IP1 (11723275_at) / RFU SPTSSB (11747773_x_at) / Fold change /veh SPTSSB (11747773_x_at) / RFU PRSS12 (11739890_at) / Fold change /veh PRSS12 (11739890_at) / RFU BIN1 (11741810_x_at) / Fold change /veh BIN1 (11741810_x_at) / RFU WNT11 (11732464_a_at) / Fold change /veh WNT11 (11732464_a_at) / RFU C10orf10 (11716521_a_at) / Fold change /veh C10orf10 (11716521_a_at) / RFU C5orf56 (11738089_at) / Fold change /veh C5orf56 (11738089_at) / RFU CYB561 (11721691_x_at) / Fold change /veh CYB561 (11721691_x_at) / RFU ANKRD19P (11752326_a_at) / Fold change /veh ANKRD19P (11752326_a_at) / RFU OR2T12 /// OR2T33 /// OR2T8 (11738714_s_at) / Fold change /veh OR2T12 /// OR2T33 /// OR2T8 (11738714_s_at) / RFU VCAN (11748164_a_at) / Fold change /veh VCAN (11748164_a_at) / RFU JSRP1 (11732532_at) / Fold change /veh JSRP1 (11732532_at) / RFU KRTAP10-11 (11738290_x_at) / Fold change /veh KRTAP10-11 (11738290_x_at) / RFU MYO3A (11730013_a_at) / Fold change /veh MYO3A (11730013_a_at) / RFU EBF3 (11725865_a_at) / Fold change /veh EBF3 (11725865_a_at) / RFU CAMK2N1 (11719241_x_at) / Fold change /veh CAMK2N1 (11719241_x_at) / RFU C5orf56 (11738088_a_at) / Fold change /veh C5orf56 (11738088_a_at) / RFU OLFML3 (11715873_a_at) / Fold change /veh OLFML3 (11715873_a_at) / RFU LOC100653217 /// NTM (11731650_a_at) / Fold change /veh LOC100653217 /// NTM (11731650_a_at) / RFU MAPK11 (11762145_a_at) / Fold change /veh MAPK11 (11762145_a_at) / RFU FIZ1 (11724087_x_at) / Fold change /veh FIZ1 (11724087_x_at) / RFU OASL (11726364_x_at) / Fold change /veh OASL (11726364_x_at) / RFU SOX15 (11748057_x_at) / Fold change /veh SOX15 (11748057_x_at) / RFU CD79A (11719716_a_at) / Fold change /veh CD79A (11719716_a_at) / RFU HIST1H1D (11736915_at) / Fold change /veh HIST1H1D (11736915_at) / RFU CASKIN2 (11723855_a_at) / Fold change /veh CASKIN2 (11723855_a_at) / RFU LOC730098 (11760151_x_at) / Fold change /veh LOC730098 (11760151_x_at) / RFU OR4N2 (11742367_at) / Fold change /veh OR4N2 (11742367_at) / RFU PRRT2 (11749266_a_at) / Fold change /veh PRRT2 (11749266_a_at) / RFU SNX32 (11753110_a_at) / Fold change /veh SNX32 (11753110_a_at) / RFU CDHR5 (11726645_a_at) / Fold change /veh CDHR5 (11726645_a_at) / RFU RCAN1 (11760418_a_at) / Fold change /veh RCAN1 (11760418_a_at) / RFU FAM167A (11723789_a_at) / Fold change /veh FAM167A (11723789_a_at) / RFU FAM26E (11764081_at) / Fold change /veh FAM26E (11764081_at) / RFU ISYNA1 (11749810_s_at) / Fold change /veh ISYNA1 (11749810_s_at) / RFU ACY1 (11761880_at) / Fold change /veh ACY1 (11761880_at) / RFU 11764098_at / Fold change /veh 11764098_at / RFU SAMD14 (11745864_x_at) / Fold change /veh SAMD14 (11745864_x_at) / RFU NPB (11741838_a_at) / Fold change /veh NPB (11741838_a_at) / RFU TMPRSS6 (11731388_a_at) / Fold change /veh TMPRSS6 (11731388_a_at) / RFU KRTAP10-2 (11738614_at) / Fold change /veh KRTAP10-2 (11738614_at) / RFU ARHGAP8 /// PRR5-ARHGAP8 (11727945_x_at) / Fold change /veh ARHGAP8 /// PRR5-ARHGAP8 (11727945_x_at) / RFU KRTAP5-7 /// NADSYN1 (11734609_at) / Fold change /veh KRTAP5-7 /// NADSYN1 (11734609_at) / RFU RASL12 (11751679_a_at) / Fold change /veh RASL12 (11751679_a_at) / RFU CDKN2B (11736163_a_at) / Fold change /veh CDKN2B (11736163_a_at) / RFU PRF1 (11729649_at) / Fold change /veh PRF1 (11729649_at) / RFU, ZNF638 /// ZNF638-IT1 / Fold change vs veh, ZNF638 /// ZNF638-IT1 / RFU, PANK3 / Fold change vs veh, PANK3 / RFU, SH3YL1 / Fold change vs veh, SH3YL1 / RFU, ZEB2 / Fold change vs veh, ZEB2 / RFU, NRIP1 / Fold change vs veh, NRIP1 / RFU, PTTG1IP / Fold change vs veh, PTTG1IP / RFU, CAPN2 / Fold change vs veh, CAPN2 / RFU, MED14 / Fold change vs veh, MED14 / RFU, SNORA58 / Fold change vs veh, SNORA58 / RFU, C1orf63 / Fold change vs veh, C1orf63 / RFU, LRRFIP1 / Fold change vs veh, LRRFIP1 / RFU, NDUFAF7 / Fold change vs veh, NDUFAF7 / RFU, SLC12A2 / Fold change vs veh, SLC12A2 / RFU, IBTK / Fold change vs veh, IBTK / RFU, ESF1 / Fold change vs veh, ESF1 / Fold change vs veh, TMEM50B / RFU, TAOK1 / Fold change vs veh, TAOK1 / RFU, ACBD3 / Fold change vs veh, ACBD3 / RFU, TMA16 / Fold change vs veh, TMA16 / RFU, RWDD3 / Fold change vs veh, RWDD3 / RFU, BCAT1 / Fold change vs veh, BCAT1 / RFU, EDEM3 / Fold change vs veh, EDEM3 / RFU, TMEM33 / Fold change vs veh, TMEM33 / RFU, WDR75 / Fold change vs veh, WDR75 / RFU, AHCTF1 / Fold change vs veh, AHCTF1 / RFU, TFRC / Fold change vs veh, TFRC / RFU, ZDHHC17 / Fold change vs veh, ZDHHC17 / RFU, NOM1 / Fold change vs veh, NOM1 / RFU, ARL8B / Fold change vs veh, ARL8B / RFU, ZBTB11 / Fold change vs veh, ZBTB11 / RFU, TAMM41 / Fold change vs veh, TAMM41 / RFU, KIAA1704 /// LOC100996395 / Fold change vs veh, KIAA1704 /// LOC100996395 / RFU, ING1 / Fold change vs veh, ING1 / RFU, TRMT61B / Fold change vs veh, TRMT61B / RFU, FUBP3 / Fold change vs veh, FUBP3 / RFU, TP53 / Fold change vs veh, TP53 / RFU, TNKS2 / Fold change vs veh, TNKS2 / RFU, ZFP14 / Fold change vs veh, ZFP14 / RFU, ACTR2 / Fold change vs veh, ACTR2 / RFU, PPP3R1 / Fold change vs veh, PPP3R1 / RFU, PIK3R1 / Fold change vs veh, PIK3R1 / RFU, HNRNPA1 / Fold change vs veh, HNRNPA1 / RFU, RNF170 / Fold change vs veh, RNF170 / RFU, ZNF28 / Fold change vs veh, ZNF28 / RFU, RNGTT / Fold change vs veh, RNGTT / RFU, OGT / Fold change vs veh, OGT / RFU, BRD1 / Fold change vs veh, BRD1 / RFU, MARS / Fold change vs veh, MARS / RFU, ZNF655 / Fold change vs veh, ZNF655 / RFU, FAHD1 / Fold change vs veh, FAHD1 / RFU, BDP1 / Fold change vs veh, BDP1 / RFU, LRRCC1 / Fold change vs veh, LRRCC1 / RFU, ARID1A / Fold change vs veh, ARID1A / RFU, ZNF146 / Fold change vs veh, ZNF146 / RFU, ZNF330 / Fold change vs veh, ZNF330 / RFU, GPN3 / Fold change vs veh, GPN3 / RFU, C9orf123 / Fold change vs veh, C9orf123 / RFU, N4BP2L2 / Fold change vs veh, N4BP2L2 / RFU, ARFIP1 / Fold change vs veh, ARFIP1 / RFU, FAM179B / Fold change vs veh, FAM179B / RFU, BCL10 / Fold change vs veh, BCL10 / RFU, UHRF1BP1L / Fold change vs veh, UHRF1BP1L / RFU, BET1 / Fold change vs veh, BET1 / RFU, CNOT2 / Fold change vs veh, CNOT2 / RFU, ZNF268 / Fold change vs veh, ZNF268 / Fold change vs veh, ZNF507 / RFU, DGCR2 / Fold change vs veh, DGCR2 / RFU, WDSUB1 / Fold change vs veh, WDSUB1 / Fold change vs veh, HSP90B1 /// MIR3652 / RFU, ADSS / Fold change vs veh, ADSS / RFU, GK / Fold change vs veh, GK / RFU, ZNF148 / Fold change vs veh, ZNF148 / RFU, TAF9 / Fold change vs veh, TAF9 / RFU, SLC1A5 / Fold change vs veh, SLC1A5 / RFU, SLMO2 / Fold change vs veh, SLMO2 / RFU, ABCC4 / Fold change vs veh, ABCC4 / RFU, LOC101060439 /// RAP1B / Fold change vs veh, LOC101060439 /// RAP1B / RFU, RFX7 / Fold change vs veh, RFX7 / RFU, GTPBP10 / Fold change vs veh, GTPBP10 / RFU, CNEP1R1 / Fold change vs veh, CNEP1R1 / RFU, BIVM-ERCC5 /// ERCC5 / Fold change vs veh, BIVM-ERCC5 /// ERCC5 / RFU, ILF3 / Fold change vs veh, ILF3 / RFU 11762660_at / Fold change /veh 11762660_at / RFU VCAN (11757783_s_at) / Fold change /veh VCAN (11757783_s_at) / RFU DDX43 (11728927_at) / Fold change /veh DDX43 (11728927_at) / RFU KRT8 (11758188_x_at) / Fold change /veh KRT8 (11758188_x_at) / RFU NKD1 (11759106_at) / Fold change /veh NKD1 (11759106_at) / RFU SRD5A1 (11742802_a_at) / Fold change /veh SRD5A1 (11742802_a_at) / RFU TPSAB1 /// TPSB2 (11721975_s_at) / Fold change /veh TPSAB1 /// TPSB2 (11721975_s_at) / RFU GSTM3 (11746129_a_at) / Fold change /veh GSTM3 (11746129_a_at) / RFU IL23R (11737362_x_at) / Fold change /veh IL23R (11737362_x_at) / RFU TMEM51 (11727254_a_at) / Fold change /veh TMEM51 (11727254_a_at) / RFU PIWIL2 (11732686_x_at) / Fold change /veh PIWIL2 (11732686_x_at) / RFU ORM1 (11744905_x_at) / Fold change /veh ORM1 (11744905_x_at) / RFU CCDC152 (11743942_at) / Fold change /veh CCDC152 (11743942_at) / RFU ECM1 (11717891_a_at) / Fold change /veh ECM1 (11717891_a_at) / RFU IL23R (11748794_a_at) / Fold change /veh IL23R (11748794_a_at) / RFU TNFAIP8L3 (11732012_x_at) / Fold change /veh TNFAIP8L3 (11732012_x_at) / RFU MBOAT4 (11741988_at) / Fold change /veh MBOAT4 (11741988_at) / RFU 11764193_at / Fold change /veh 11764193_at / RFU TMEM53 (11763286_at) / Fold change /veh TMEM53 (11763286_at) / RFU MAGEB2 (11727129_at) / Fold change /veh MAGEB2 (11727129_at) / RFU TMEM200A (11744735_a_at) / Fold change /veh TMEM200A (11744735_a_at) / RFU CCDC152 (11751479_a_at) / Fold change /veh CCDC152 (11751479_a_at) / RFU FAM211A (11726209_a_at) / Fold change /veh FAM211A (11726209_a_at) / RFU RGS16 (11746705_a_at) / Fold change /veh RGS16 (11746705_a_at) / RFU VCAN (11755009_s_at) / Fold change /veh VCAN (11755009_s_at) / RFU RHOB (11743442_s_at) / Fold change /veh RHOB (11743442_s_at) / RFU RGS16 (11720943_a_at) / Fold change /veh RGS16 (11720943_a_at) / RFU RGS16 (11720944_at) / Fold change /veh RGS16 (11720944_at) / RFU, VPS4B / Fold change vs veh, VPS4B / RFU, CREB1 / Fold change vs veh, CREB1 / RFU, DNAJC13 / Fold change vs veh, DNAJC13 / RFU, GNAQ / Fold change vs veh, GNAQ / RFU, CDK5R1 / Fold change vs veh, CDK5R1 / RFU, ZRANB3 / Fold change vs veh, ZRANB3 / RFU, CUL4A / Fold change vs veh, CUL4A / RFU, CCNY / Fold change vs veh, CCNY / RFU, UFL1 / Fold change vs veh, UFL1 / RFU, COG3 / Fold change vs veh, COG3 / RFU, DIAPH2 / Fold change vs veh, DIAPH2 / RFU, SKA2 / Fold change vs veh, SKA2 / RFU, AFF3 / Fold change vs veh, AFF3 / RFU, LMF1 / Fold change vs veh, LMF1 / RFU, IPO11 / Fold change vs veh, IPO11 / RFU, DFFB / Fold change vs veh, DFFB / RFU, FOXP1 / Fold change vs veh, FOXP1 / RFU, CARD8 / Fold change vs veh, CARD8 / RFU, STRN3 / Fold change vs veh, STRN3 / RFU, ADK / Fold change vs veh, ADK / RFU, RASSF2 / Fold change vs veh, RASSF2 / RFU, WIPF1 / Fold change vs veh, WIPF1 / RFU, LARP1B / Fold change vs veh, LARP1B / RFU, RASA1 / Fold change vs veh, RASA1 / RFU, RB1 / Fold change vs veh, RB1 / RFU, PPFIA1 / Fold change vs veh, PPFIA1 / RFU, MAT2A / Fold change vs veh, MAT2A / RFU, CCT5 / Fold change vs veh, CCT5 / RFU, WDR92 / Fold change vs veh, WDR92 / RFU, CUX1 / Fold change vs veh, CUX1 / RFU, TTC7A / Fold change vs veh, TTC7A / RFU, TMEM135 / Fold change vs veh, TMEM135 / RFU, DEPTOR / Fold change vs veh, DEPTOR / RFU, CPM / Fold change vs veh, CPM / RFU, DNAJB6 / Fold change vs veh, DNAJB6 / RFU, CACNA2D3 / Fold change vs veh, CACNA2D3 / RFU, DTX4 / Fold change vs veh, DTX4 / RFU, TFCP2 / Fold change vs veh, TFCP2 / RFU, GMCL1 /// GMCL1P1 / Fold change vs veh, GMCL1 /// GMCL1P1 / RFU, AEBP2 / Fold change vs veh, AEBP2 / RFU, SNHG1 /// SNORD22 /// SNORD25 /// SNORD26 /// SNORD27 /// SNORD28 /// SNORD29 /// SNORD31 / Fold change vs veh, SNHG1 /// SNORD22 /// SNORD25 /// SNORD26 /// SNORD27 /// SNORD28 /// SNORD29 /// SNORD31 / Fold change (Aza/veh), C12orf56 (ProbeSet 11735607_a_at) / Fold change (ACY-1035/veh), C12orf56 (ProbeSet 11735607_a_at) / Fold change (Aza/veh), FGFR1OP (ProbeSet 11751329_s_at) / Fold change (ACY-1035/veh), FGFR1OP (ProbeSet 11751329_s_at) / Fold change (Aza/veh), VPS36 (ProbeSet 11739960_a_at) / Fold change (ACY-1035/veh), VPS36 (ProbeSet 11739960_a_at) / RFU SYPL1 (11715823_x_at) / Fold change /veh SYPL1 (11715823_x_at) / RFU IGFBP7 (11715501_s_at) / Fold change /veh IGFBP7 (11715501_s_at) / RFU REEP3 (11722064_at) / Fold change /veh REEP3 (11722064_at) / RFU IGLL1 (11728026_x_at) / Fold change /veh IGLL1 (11728026_x_at): dose or concentration left out as unconfirmed
Details: ProbeSet 11753234_a_at; LIST B

## Nc1ccc(-c2cccs2)cc1NC(=O)c1ccc2c(c1)cc(C1CC1)n2CCN1CCOCC1 [ACY-1035]
  RFU, TAMM41: 55.35 RFU
